Molecules are shown by their SMILES. Calls of active or inactive are those of the source. No cut-off for these calls is given here.

In assay [1] the target is T1, Histone deacetylase (Homo sapiens) (UniProt Q13547+O15379+Q9UBN7+Q92769+Q9UQL6+Q8WUI4+Q9BY41+Q96DB2+P56524+Q9UKV0+Q969S8). The assay can be described thus: Effect on HDAC in human HaCaT cells assessed as downregulation of miR-378 at 10 uM after 1 hr by RT-PCR analysis. The assay is classed as cell-based.
For assay [2], the target named is T1, Histone deacetylase (Homo sapiens). The assay is described as follows: Effect on HDAC in human HaCaT cells assessed as downregulation of miR-33a# at 10 uM after 1 hr by RT-PCR analysis. The assay is classed as cell-based.
For assay [3] the target is unchanged. The assay is described as follows: Effect on HDAC in human HaCaT cells assessed as downregulation of miR-19b-1 at 10 uM after 1 hr by RT-PCR analysis. The assay is classed as cell-based.
Assay [4] concerns the target Histone deacetylase 2 (Homo sapiens) (UniProt Q92769). The assay is described as follows: Induction of HDAC2 cysteine S-nitrosylation in human HaCaT cells at 10 uM after 1 hr by immunoprecipitation method in prsence of NO scavenger PTIO. The assay is classed as cell-based.
The target of assay [5] is T1, Histone deacetylase (Homo sapiens). The assay can be described thus: Effect on HDAC in human HaCaT cells assessed as downregulation of miR-99b# at 10 uM after 1 hr by RT-PCR analysis. The assay is classed as cell-based.
For assay [6] the target is unchanged. The assay can be described thus: Effect on HDAC in human HaCaT cells assessed as upregulation of miR-192# at 10 uM after 1 hr by RT-PCR analysis. The assay is classed as cell-based.
Assay [7] has as its system C2C12. The assay can be described thus: Induction of myogenic differentiation in mouse C2C12 cells assessed as MHC-positive fibers at 0.1 uM after 7 days by immunofluorescence microscopy. The assay is classed as functional, cell-based.
The target of assay [8] is T1, Histone deacetylase (Homo sapiens). The assay can be described thus: Effect on HDAC in human HaCaT cells assessed as downregulation of miR-27a# at 10 uM after 1 hr by RT-PCR analysis. The assay is classed as cell-based.
Assay [9] relates to HaCaT. The assay can be described thus: Induction of NO release in human HaCaT cells at 10 uM after 1 to 5 hrs by DAF-2D-based FACS analysis relative to DMSO-treated control. The assay is classed as functional, cell-based.
The target in assay [10] is T1, Histone deacetylase (Homo sapiens). The assay is described as follows: Effect on HDAC in human HaCaT cells assessed as downregulation of miR-1254 at 10 uM after 1 hr by RT-PCR analysis. The assay is classed as cell-based.
Assay [11] addresses Histone deacetylase 4 (Homo sapiens) (UniProt P56524). The assay can be described thus: Induction of HDAC4 nuclear shuttling in human HaCaT cells at 10 uM after 1 hr by immunofluorescence method relative to DMSO-treated control. The assay is classed as cell-based.
Assay [12] concerns C2C12. The assay is described as follows: Modulation of mouse C2C12 cell proliferation at 0.1 uM after 72 hrs. The assay is classed as functional, cell-based.
Assay [13] addresses Histone deacetylase 2 (Homo sapiens) (UniProt Q92769). The assay is described as follows: Induction of HDAC2 cysteine S-nitrosylation in human HaCaT cells at 10 uM after 1 hr by immunoprecipitation method. The assay is classed as cell-based.
For assay [14], the target named is T1, Histone deacetylase (Homo sapiens). The conditions noted are these: HaCaT, at 1 to 50 µM.
Description: Inhibition of HDAC activity in human HaCaT cell lysate at 1 to 50 uM after 1 hr by colorimetry
For assay [15] the target is unchanged. The assay is described as follows: Effect on HDAC in human HaCaT cells assessed as upregulation of miR-409-3p at 10 uM after 1 hr by RT-PCR analysis. The assay is classed as cell-based.
For assay [16], the system named is C2C12. The assay can be described thus: Induction of myogenic differentiation in mouse C2C12 cells assessed as increase in number of nuclei per fiber at 0.1 uM after 7 days by immunofluorescence microscopy. The assay is classed as functional, cell-based.
Assay [17] deals with T1, Histone deacetylase (Homo sapiens). The assay is described as follows: Effect on HDAC in human HaCaT cells assessed as upregulation of miR-1305 at 10 uM after 1 hr by RT-PCR analysis. The assay is classed as cell-based.
Assay [18] relates to HaCaT. The assay is described as follows: Induction of NO release in human HaCaT cells assessed as Production of [3H]cGMP after 1 hr by liquid scintillation counting. The assay is classed as functional, cell-based.
The target of assay [19] is T1, Histone deacetylase (Homo sapiens). The assay is described as follows: Effect on HDAC in human HaCaT cells assessed as downregulation of miR-106b# at 10 uM after 1 hr by RT-PCR analysis. The assay is classed as cell-based.
For assay [20] the target is unchanged. The assay is described as follows: Effect on HDAC in human HaCaT cells assessed as upregulation of miR-18a# at 10 uM after 1 hr by RT-PCR analysis. The assay is classed as cell-based.
Assay [21] shares this target. The assay is described as follows: Effect on HDAC in human HaCaT cells assessed as downregulation of miR-200a# at 10 uM after 1 hr by RT-PCR analysis. The assay is classed as cell-based.
Assay [22] shares this target. The assay can be described thus: Effect on HDAC in human HaCaT cells assessed as upregulation of miR-30d# at 10 uM after 1 hr by RT-PCR analysis. The assay is classed as cell-based.
For assay [23] the target is unchanged. The assay is described as follows: Effect on HDAC in human HaCaT cells assessed as upregulation of miR-1296 at 10 uM after 1 hr by RT-PCR analysis. The assay is classed as cell-based.
For assay [24] the target is unchanged. The assay can be described thus: Effect on HDAC in human HaCaT cells assessed as downregulation of miR-505# at 10 uM after 1 hr by RT-PCR analysis. The assay is classed as cell-based.
For assay [25], the system named is C2C12. The assay can be described thus: Increase in mouse C2C12 cell proliferation at 0.1 uM after 72 hrs. The assay is classed as functional, cell-based.
Assay [26] deals with T1, Histone deacetylase (Homo sapiens). The assay can be described thus: Inhibition of HDAC activity in human HaCaT cell lysate at 50 uM after 1 hr by colorimetry. The assay is classed as cell-free.

Chain of Histone deacetylase 4 (Homo sapiens) (P56524 whole entry): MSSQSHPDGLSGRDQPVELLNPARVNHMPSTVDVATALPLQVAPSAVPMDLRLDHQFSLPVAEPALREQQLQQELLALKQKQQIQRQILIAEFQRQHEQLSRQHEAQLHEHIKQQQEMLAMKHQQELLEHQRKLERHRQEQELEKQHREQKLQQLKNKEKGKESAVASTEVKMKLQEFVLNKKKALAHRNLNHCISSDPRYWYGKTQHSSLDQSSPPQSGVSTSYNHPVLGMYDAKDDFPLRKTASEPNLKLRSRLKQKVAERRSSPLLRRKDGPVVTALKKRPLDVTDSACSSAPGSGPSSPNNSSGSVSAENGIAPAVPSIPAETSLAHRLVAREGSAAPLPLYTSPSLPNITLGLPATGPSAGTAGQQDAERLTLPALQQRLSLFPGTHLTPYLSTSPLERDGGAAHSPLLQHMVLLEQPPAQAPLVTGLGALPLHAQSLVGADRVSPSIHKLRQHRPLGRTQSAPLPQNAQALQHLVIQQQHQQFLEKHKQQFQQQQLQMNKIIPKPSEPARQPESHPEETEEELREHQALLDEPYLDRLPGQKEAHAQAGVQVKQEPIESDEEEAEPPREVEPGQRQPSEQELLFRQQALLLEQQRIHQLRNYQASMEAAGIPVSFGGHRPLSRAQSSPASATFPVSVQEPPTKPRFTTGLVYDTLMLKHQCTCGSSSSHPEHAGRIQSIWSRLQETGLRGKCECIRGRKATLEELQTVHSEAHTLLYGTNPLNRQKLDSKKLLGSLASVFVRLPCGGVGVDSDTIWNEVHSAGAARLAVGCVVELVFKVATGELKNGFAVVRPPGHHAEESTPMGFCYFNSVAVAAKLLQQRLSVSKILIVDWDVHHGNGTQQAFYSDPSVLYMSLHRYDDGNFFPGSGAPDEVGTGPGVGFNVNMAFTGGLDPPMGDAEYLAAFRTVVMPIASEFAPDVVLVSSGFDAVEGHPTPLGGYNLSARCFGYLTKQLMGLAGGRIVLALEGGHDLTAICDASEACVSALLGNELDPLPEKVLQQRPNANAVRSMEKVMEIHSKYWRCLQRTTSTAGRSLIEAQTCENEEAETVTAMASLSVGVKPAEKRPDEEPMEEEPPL
Chain of Histone deacetylase 2 (Homo sapiens) (Q92769 whole entry): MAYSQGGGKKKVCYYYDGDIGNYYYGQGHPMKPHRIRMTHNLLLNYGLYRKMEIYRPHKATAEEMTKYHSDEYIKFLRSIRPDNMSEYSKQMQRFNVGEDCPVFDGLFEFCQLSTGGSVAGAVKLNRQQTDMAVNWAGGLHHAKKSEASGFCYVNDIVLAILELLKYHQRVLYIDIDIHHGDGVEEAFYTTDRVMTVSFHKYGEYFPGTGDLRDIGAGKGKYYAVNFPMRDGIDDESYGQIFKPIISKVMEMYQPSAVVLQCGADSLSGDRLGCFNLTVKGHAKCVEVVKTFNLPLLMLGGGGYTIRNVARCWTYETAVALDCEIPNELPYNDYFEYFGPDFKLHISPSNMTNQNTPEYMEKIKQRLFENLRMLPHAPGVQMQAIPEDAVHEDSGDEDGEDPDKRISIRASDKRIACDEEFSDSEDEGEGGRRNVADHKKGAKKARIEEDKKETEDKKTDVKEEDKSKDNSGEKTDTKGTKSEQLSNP

For the compound `CN(Cc1ccc(COC(=O)NCc2ccc(C(=O)Nc3ccccc3N)cc2)cn1)Cc1no[n+]([O-])c1C#N`, the outcome in assay [1], in assay [2], in assay [3], in [5], in assay [6] and in assay [7] was Active. The outcome in assay [8], in assay [9], in assay [10], in assay [11], in [12] and in assay [13] was Active. For the same compound, the result in assay [15], in assay [16], in [17], in assay [19], in assay [20] and in assay [21] was Active. For the same compound, the outcome in [4] was inactive. For the same compound, the inhibition entry in [14] was “Active”. Also, in assay [18], the Activity result is “Dose-dependent effect”.
As to `CN(C)Cc1no[n+]([O-])c1C#N`, the result in assay [1], in [9], in assay [22], in [11], in assay [23] and in [24] was Active. In addition, the result in assay [25] and in [19] was Active. Besides, the inhibition entry in assay [26] is “Active”.
For the compound `Nc1ccccc1NC(=O)c1ccc(CNC(=O)OCc2cccnc2)cc1`, the result in assay [9] and in assay [11] was inactive. The outcome in [12] was Active.

These data come from ChEMBL document CHEMBL2440104, “Synthesis and Biological Evaluation of the First Example of NO-Donor Histone Deacetylase Inhibitor” (ACS Med Chem Lett, 2013).
